Where two headings read alike, the source gives them in different places. Each block holds one molecule with its values, some of them ahead of it. Where a SMILES comes first, the peptide text is derived from it. The star is where a group is joined. CH2Cl = ClC*
Assays:
[1] = molecular target: T1, GTVap (Rattus norvegicus, UniProt P97629); assay: GTVap inhibition by protease and aminopeptidase inhibitors, leu-p-nitroanilide substrate, HDM extract; format: biochemical; settings: for IC50: HDM enzyme extract, inhibitor added 15 minutes prior to leu-p-nitroanilide substrate
T1 construct: the GTVaps were solubilized from GLUT4 vesicles, LDM, HDM, and PM using 0.1% Triton X-100; from tissue; host or cells: adipocytes of epididymal fat pads of Sprague-Dawley rats, HDM fraction (Triton X-100 extract)
T1 sequence (P97629 1-1025): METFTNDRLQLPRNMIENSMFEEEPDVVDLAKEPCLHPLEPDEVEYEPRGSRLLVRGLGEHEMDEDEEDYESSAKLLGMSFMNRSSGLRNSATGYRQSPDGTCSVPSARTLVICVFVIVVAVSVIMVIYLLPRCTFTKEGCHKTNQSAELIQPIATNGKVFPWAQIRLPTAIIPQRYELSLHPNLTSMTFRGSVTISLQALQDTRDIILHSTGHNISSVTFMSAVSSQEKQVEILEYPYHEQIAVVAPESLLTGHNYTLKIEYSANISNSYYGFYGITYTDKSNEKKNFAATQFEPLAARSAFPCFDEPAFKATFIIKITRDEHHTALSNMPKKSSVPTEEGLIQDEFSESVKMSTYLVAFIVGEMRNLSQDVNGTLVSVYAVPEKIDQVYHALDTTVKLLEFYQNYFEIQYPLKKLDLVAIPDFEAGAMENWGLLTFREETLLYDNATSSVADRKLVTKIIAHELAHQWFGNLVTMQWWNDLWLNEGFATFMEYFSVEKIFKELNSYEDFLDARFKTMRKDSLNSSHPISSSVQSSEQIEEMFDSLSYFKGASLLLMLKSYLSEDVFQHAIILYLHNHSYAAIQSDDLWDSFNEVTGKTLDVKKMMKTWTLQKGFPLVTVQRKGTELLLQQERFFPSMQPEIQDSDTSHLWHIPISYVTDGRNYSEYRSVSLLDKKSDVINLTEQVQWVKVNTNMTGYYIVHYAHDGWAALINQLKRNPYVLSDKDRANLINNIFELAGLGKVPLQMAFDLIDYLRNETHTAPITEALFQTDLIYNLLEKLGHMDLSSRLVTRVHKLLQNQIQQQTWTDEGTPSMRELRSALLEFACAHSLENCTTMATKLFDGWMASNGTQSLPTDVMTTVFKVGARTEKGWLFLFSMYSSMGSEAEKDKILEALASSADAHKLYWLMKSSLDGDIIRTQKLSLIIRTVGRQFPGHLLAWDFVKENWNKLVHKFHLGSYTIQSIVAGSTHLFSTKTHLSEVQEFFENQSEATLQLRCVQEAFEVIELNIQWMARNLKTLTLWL

[2] = molecular target: T1, GTVap; assay: Ion stabilization of GTVap activity over time at 4° C.; format: biochemical; settings: HDM extract in 20 mM Tris-HCl pH 7.5 at 4° C.
[3] = molecular target: T1, GTVap; assay: Effect of ions on GTVap activity, Triton X-100 extracts of HDM; format: biochemical
[4] = molecular target: T2, GLUT4 vesicle GTVap (Rattus norvegicus, UniProt P97629); assay: Relative activity of GLUT4 vesicle GTVap with amino acid β-napthylamide substrates; format: biochemical; settings: GLUT4 vesicle extract; substrate 200 uM
T2 construct: a GLUT4 vesicle extract was prepared as described above and incubated with each substrate; from tissue; host or cells: GLUT4 vesicles immunopurified from the LDM fraction of rat epididymal adipocytes
T2 sequence (P97629 1-1025): T1 sequence (P97629 1-1025)
Procedure: Unless otherwise indicated, the GTVaps were solubilized from GLUT4 vesicles, LDM, HDM, and PM using 0.1% Triton X-100 in 20 mM Tris, pH 7.5 at 4° C. for 15 minutes. The insoluble material was pelleted at 20,000×g for 20 minutes and discarded. […] The results are reported as pmoles p-nitroanilide produced per μg protein/hour at 37° C. unless otherwise noted.
To characterize the relative reactivities of GTVap to different amino acid β-napthylamide substrates, a GLUT4 vesicle extract was prepared as described above and incubated with each substrate at a concentration of 200 uM as described above.

[5] = molecular target: T1, GTVap; assay: Relative activity of GTVap with amino acid p-nitroanilide substrates, HDM extract; format: biochemical; settings: substrate 1.6 mM, 37° C.
Procedure: The […] can be maximally extracted (>95%) from the LDM, HDM, and PM membranous compartments using low concentrations of detergents. Unless otherwise indicated, the […] were solubilized from GLUT4 vesicles, LDM, HDM, and PM using 0.1% Triton X-100 in 20 mM Tris, pH 7.5 at 4° C. for 15 minutes. The insoluble material was pelleted at 20,000×g for 20 minutes and discarded. […] The UV absorbance of the p-nitroanilide product was measured at 405 nm and quantified by comparison to p-nitroanilide standards. The results are reported as pmoles p-nitroanilide produced per μg protein/hour at 37° C. unless otherwise noted. Alternatively, the results are presented as change in OD at 405 nm if the protein was too low to determine (eg column fractions) or a relative comparison was being made. […] To characterize the relative reactivities of GTVap to different amino acid p-nitroanilide substrates, an HDM extract was prepared as described above and incubated with each substrate at a concentration of 1.6 mM as described above.

[6] = tested on: GTVap; assay: Insulin-stimulated translocation of GTVap to the plasma membrane in rat adipocytes; format: cell-based; settings: insulin 10 nM, 20 minutes at 37° C.
Procedure: Epididymal fat pads from 125 g Sprague-Dawley rats were removed and immediately placed in KRBH buffer containing 1% BSA, 2.5 mM glucose and 200 nM adenosine. The fat was minced, collagenase was added to 3 mg/ml, and the mixture was incubated at 37° C. for 45 minutes with shaking. The dissociated adipocytes were filtered through a 250 micron nylon screen and washed 3 times (using mild centrifugation) with KRBH containing 1% BSA and 200 nM adenosine. The cells were resuspended in the wash buffer containing 3% BSA.
The membrane fractions PM, HDM and LDM were prepared generally according to Simpson et. al., Biochimica et Biophysica Acta, 763, 393-407 (1983). Isolated adipocytes were homogenized in a chilled Wheaton 55 ml teflon pestle homogenizer for ten strokes. The fat layer was removed following a 10,000×g centrifugation and the remaining material was rehomogenized. The PM fraction was pelleted at 16,000×g and the supernatant was recentrifuged to remove any additional PM. […]
GLUT4 is known to translocate from an intracellular vesicular compartment to the plasma membrane upon insulin stimulation. […] The insulin stimulated and control adipocytes were fractionated into the subcellular compartments and analyzed for GTVap enzyme and protein (Western blot) as previously described.

[7] = molecular target: T1, GTVap; assay: GTVap cleavage of insulin by HDM, mass spectrometry; format: biochemical; settings: HDM 1.8 mg/ml, 120 μg/ml porcine insulin, 37° C., pH 7.5
Procedure: HDM (1.8 mg/ml) was incubated at 37° C. with 120 μg/ml porcine insulin in 50 mM sodium borate, pH 7.5, containing the following protease inhibitors that were previously shown to have no inhibitory effect on GTVap: 2 mM benzamidine, 2 μM leupeptin, 1 μM pepstatin, 1 mM DFP, and 150 μM PMSF. The reaction was terminated after various incubation times by centrifugation of aliquots at 200,000×g to remove the HDM. The insulin products were detected by mass spectrometry or were first chromatographed on a 2.1×15 cm Beckman Spherisorb C18 column at 0.25 ml/min. in a 4 hour linear gradient of 27% to 31% acetonitrile in 1% TFA adjusted to pH 3.0 with TEA, prior to mass spectroscopic analysis.

[8] = molecular target: GTVap (Glucose Transporter Vesicle aminopeptidase) as present in rat adipocyte HDM and HDM extracts (rat); assay: batch adsorption of solubilised HDM extract on wheat germ lectin-Sepharose
[9] = incubated 15 minutes at 37° C. before leu-p-nitroanilide

Molecule: O[C@H](CS)[C@H](O)CS (racemic) [Dithiothreitol]
activation at 200 µM ([1]; at 0.2 mM, read-out: increase of enzyme activity): 20%
inhibition at 5000 µM ([1]; at 5 mM): 30%

Molecule: [Ca] [Calcium]
stabilization of GTVap activity against time dependent inactivation [2]: stabilizes the enzyme activity
effect of ion on GTVap enzyme activity [3, 9]: partially activate, but at high μmolar to mmolar ion concentrations

Molecule: CC(C)C[C@H](NC(=O)[C@@H](N)CC(C)C)C(=O)N[C@@H](Cc1ccccc1)C(=O)CCl [Leu-Leu-Phe-chloromethyl ketone] (H-Leu-Leu-Phe-CH2Cl)
IC50 [1]: 1000 µM

Molecule: O=S(=O)(F)Cc1ccccc1 [PMSF, phenylmethylsulfonyl fluoride]
effect on GTVap activity [1]: no effect

Molecule: [Zn+2] [Zinc]
stabilization of GTVap activity against time dependent inactivation [2]: do not stabilize the enzyme
effect of ion on GTVap enzyme activity [3, 9]: optimally activate at μmolar concentrations and inhibit at mmolar concentrations

Molecule: CCCCC[C@H](CC(=O)NO)C(=O)N[C@H](C(=O)N1CCC[C@H]1CO)C(C)C [actinonin, Actinonin]
IC50 [1]: > 1000 µM

Molecule: N=C(N)NCCCC(N)C(=O)Nc1ccc2ccccc2c1 (stereo not drawn) [arginine β-napthylamide]
activity of GLUT4 vesicle GTVap with amino acid-β-napthylamide substrate [4]: 6.5 nmoles/25 uL extract/hr

Molecule: N=C(N)c1ccccc1 [benzamidine, Benzamidine]
effect on GTVap activity [1]: no effect

Molecule: [Co+2] [cobalt]
stabilization of GTVap activity against time dependent inactivation [2]: do not stabilize the enzyme
effect of ion on GTVap enzyme activity [3, 9]: optimally activate at μmolar concentrations and inhibit at mmolar concentrations

Molecule: c1ccc(-c2ccccn2)nc1 [dipyridyl]
inhibition of GTVap activity [1]: > 98%

Molecule: CC(=O)N[C@@H](CC(C)C)C(=O)N[C@@H](CC(C)C)C(=O)N[C@H](C=O)CCCNC(=N)N [leupeptin, Leupeptin]
effect on GTVap activity [1]: no effect

Molecule: [Mg] [magnesium]
effect of ion on GTVap enzyme activity [3, 9]: partially activate, but at high μmolar to mmolar ion concentrations

Molecule: insulin: Insulin (porcine) obtained from Eli Lilly
GTVap translocation (Western blot reactivity) [6]: translocates to the plasma membrane
increase of GTVap enzyme activity in the plasma membrane [6]: 29%
cleavage of insulin by GTVap (mass spectroscopic analysis) [7]: N-terminal residues phenylalanine and valine of the B-subunit of insulin were removed sequentially

Molecule: lithium
effect of ion on GTVap enzyme activity ([3]; between 1 μM and 10 mM): no effect

Further lines, with some results ahead:

activity of GTVap with amino acid-p-nitroanilide substrate [5]: 0.08 nmoles/μg protein/hr
Molecule: NCC(=O)Nc1ccc([N+](=O)[O-])cc1 [glycine p-nitroanilide]

IC50 [1]: 2 µM
Molecule: CC(C)C[C@H](N)CS [leuthiol, L-leucinethiol]

stabilization of GTVap activity against time dependent inactivation [2]: do not stabilize the enzyme
Molecule: [Mn+2] [manganese]
effect of ion on GTVap enzyme activity [3, 9]: optimally activate at μmolar concentrations and inhibit at mmolar concentrations

activity of GLUT4 vesicle GTVap with amino acid-β-napthylamide substrate [4]: 2.9 nmoles/25 uL extract/hr
Molecule: CSCCC(N)C(=O)Nc1ccc2ccccc2c1 (stereo not drawn) [methionine β-napthylamide]

inhibition of GTVap activity ([1]; at >0.2 mM, relative to inhibitor-free control): > 98%
Molecule: c1cnc2c(c1)ccc1cccnc12 [phenanthroline]

activity of GLUT4 vesicle GTVap with amino acid-β-napthylamide substrate [4]: 0.9 nmoles/25 uL extract/hr
Molecule: NC(Cc1ccccc1)C(=O)Nc1ccc2ccccc2c1 (stereo not drawn) [phenylalanine β-napthylamide]

effect of ion on GTVap enzyme activity ([3]; between 1 μM and 10 mM): no effect
Molecule: [K+] [potassium]

activity of GTVap with amino acid-p-nitroanilide substrate [5]: 0.35 nmoles/μg protein/hr
Molecule: O=C(Nc1ccc([N+](=O)[O-])cc1)[C@@H]1CCCN1 [proline p-nitroanilide]

activity of GTVap with amino acid-p-nitroanilide substrate [5]: 0.09 nmoles/μg protein/hr
Molecule: CC(C)[C@H](N)C(=O)Nc1ccc([N+](=O)[O-])cc1 [valine p-nitroanilide]

percent of total aminopeptidase activity bound [8]: 93%
Molecule: wheat germ lectin-Sepharose 6 MB (tool reagent)

— patent US5972680A, “Glucose transporter vesicle aminopeptidase” (Bayer Corporation, priority 1995, dated 1999)
